Measurements: US20240325565A1, “COMBINATION TREATMENT FOR SOLID TUMORS INCLUDING A STING AGONIST AND A CCR2 ANTAGONIST” (University of Pittsburgh - Of the Commonwealth System of …, priority 2023, published 2024)

Columns and labels:
[1] = cited from earlier work
Panc02 tumor tissues = assay: Bulk RNA-Seq of Panc02 tumor tissues; assay type: in vivo, mice
Experimental: Bulk RNA-Seq Analysis. The Panc02 tumor-bearing mice were intravenously injected with saline, GEM and PGEM once every three days for 3 times, respectively. One day after last injection, the tumors were harvested for RNA sequencing (RNA-seq), which was performed by the Health Sciences Sequencing Core at Children's Hospital at University of Pittsburgh. RNA-Seq libraries were sequenced as 75-bp paired-end reads at a depth of ˜73-77 million reads per sample. Reads were mapped to the mouse genome (GRCm38) using STAR Aligner 2.6.1a. Gene expression quantification and differential expression analysis was performed on Saline, GEM, and PGEM treated tumor samples using RSEM 1.3.1 and Cuffdiff of Cufflinks 2.2.1. Volcano plots were generated to show the overall differential expression between pairwise comparisons among these three groups, where the x-axis indicates the log-transformed fold changes (log 2FC) and the y-axis indicates the corresponding negative log-transformed p-values (−log10(p-value)). The Gene Set Enrichment Analysis (GSEA), via GSEA software available from Broad Institute, Inc. of Cambridge, MA, was further performed based on the gene lists ranked by the log 2FC among three groups.

cGAS in Panc02 cells = assay: Picogreen staining and immunofluorescence for cGAS-bound micronuclei; assay type: cell-based, Murine; conditions: compared with control and PVD-treated groups
Experimental: (§1) Immunofluorescence Microscopy. Panc02 cells were seeded on chamber slides and treated with saline, free GEM, PGEM micelles, and PVD micelles, respectively. For all immunofluorescence staining, cells were washed in PBS, fixed in 4% formaldehyde/PBS for ten minutes at room temperature (RT) and permeabilized in 0.25% Triton/PBS for 20 minutes at RT. Blocking was performed in 5% BSA/0.1% Triton/PBS for 30 minutes, followed by incubation with primary antibodies in blocking buffer for one hour at 37° C. incubator. Cells were washed in PBS and incubated with secondary antibodies in blocking buffer for one hour at RT, followed by washing and mounting on coverslips using ProLong Gold antifade reagent with DAPI. Cells were imaged using confocal microscope at the specified magnification. For picogreen-cGAS staining, cells were incubated with pico488 DNA quantification reagent for 2 hours at 37° C. For γH2AX staining, permeabilized cells were blocked in Serum-free DAKO Protein Block for one hour at RT. Cells were incubated in primary antibody (γH2AX, 1:500; anti-HA, 1:100) in DAKO antibody (available from Agilent of Santa Clara, CA) diluent at 4° C. overnight on a rocker platform.

[2] = system: STING pathway in Panc02 cells; assay: Western blotting of STING pathway-related proteins; assay type: cell-based, Murine
Experimental: Western blotting. Western blotting was performed to evaluate the STING activation in cultured Panc02 cells. Cells grown in six-well plates with 80% confluency were treated with saline, free GEM, PGEM micelles, and PVD micelles, respectively, for 48 h. Then, the cultured Panc02 cells were washed twice with pre-cooled PBS and lysed in Pierce™ RIPA buffer (available from Thermo Fischer Scientific of Pittsburgh, PA) for 30 min in 4° C. Protein concentrations were determined by BCA method, and equal amounts of total protein lysate were resolved on a 10% SDS-PAGE and subsequently transferred to a nitrocellulose membrane. Membranes were blocked with 5% non-fat milk in PBS for 1 h prior to incubation with various antibodies targeting IRF3, P-IRF3, STING, P-STING, and Cyclin B dissolved in PBST (DPBS with 0.1% Tween 20) overnight at 4° C. The blots were washed with PBST and then probed with goat antirabbit IgG for 1 h at room temperature followed by chemiluminescence detection by SuperSignal™ West Fento Maximum Sensitivity Substrate (available from Thermo Fischer Scientific). Q-Actin or GAPDH was used as a loading control.

Panc02 cells [3] = assay: γH2AX foci immunofluorescence (DNA double strand break marker); assay type: cell-based, Murine
Experimental: as §1

Panc02 cells [4] = assay: qRT-PCR in cultured Panc02 cells; assay type: cell-based, Murine
Experimental: qRT-PCR. Panc02 cells grown in six-well plates were treated with saline, free GEM, PGEM micelles, and PVD micelles, respectively, for 48 h. Then, RNA was isolated using the PureLinkTM RNA kit (InvitrogenTM available from Thermo Fisher Scientific) and reverse transcribed using the High-Capacity cDNA Reverse Tran--scription Kit (available from Applied Biosystems/Thermo Fisher Scientific) based on the manufacturer's guidelines. qPCR was performed using Power SYBR Green PCR MasterMix (Applied Biosystems) in a QuantStudio 3 Real-Time PCR System (Applied Biosystems). In a separate study, Panc02 cells grown in six-well plates were treated with PGEM for 72 h. One day after adding PGEM into the wells, control siRNA (siNC) or STING siRNA ([…]) was added into the wells without changing the medium, and incubated for 48 h. Then the RNA was extracted, and CCL2, CCL7 and ISG15 expression levels were detected as described above. In another study, whether CCL2, CCL7 and ISG15 were induced by type I IFNs was evaluated. Panc02 cells grown in six-well plates were treated with PGEM for 72 h. One day after adding PGEM into the wells, isotype control (10 μg/mL) or IFNAR1 antibody (10 μg/mL) was added into the wells without changing the medium, and incubated for 48 h. Then, the RNA was extracted subjected to qRT-PCR analysis of the mRNA expression levels of CCL2, CCL7 and ISG15.

Panc02 tumors [5] = assay: In vivo anti-tumor study in Panc02 tumor-bearing mice; conditions: i.v. three times at an interval of three days; for inhibition of Panc02 tumor growth (therapeutic efficacy): GEM: 20 mg/kg, PF: 10 mg/kg; for anti-tumor activity of PGEM loaded with CCR2 inhibitor: 10 mg/kg for CCR2 inhibitor
Experimental: In vivo anti-tumor study. The antitumor effect was evaluated in syngeneic mice bearing Panc02 tumors. In brief, 1×10^5 Panc02 cells were inoculated into the right flank of female C57BL/6 mice. When the tumor volume reached ˜50 mm^3, the mice started to receive different treatments. […]. In a separate study, the synergistic tumor inhibition effect of PF and GEM was evaluated by intravenously injecting saline, free GEM, free PF, free GEM+PF, PGEM, and PGEM/PF (GEM: 20 mg/kg; PF: 10 mg/kg), respectively, into the Panc02 tumor-bearing mice. These treatments were also performed three times at an interval of three days. The tumor volumes and body weights were continuously monitored. At the endpoint, the tumor tissues and major organs were fixed in 10% formalin and dehydrated. Then they were embedded in paraffin and sectioned, followed by H&E staining with for histopathological examination. The biochemical parameters, including WBCs, RBCs, Hb, AST, ALT, and creatinine, were evaluated for safety profiles. The effect of PGEM/PF on the inhibition of lung metastasis of pancreatic cancer was also evaluated. A pulmonary metastasis model of pancreatic cancer was established by injecting KPC cells via tail vein. On day 10 following tumor cell inoculation, mice were i.v. administered with saline, free GEM+PF, PGEM, and PGEM/PF, respectively. The treatment was performed at day 10, day 14, and Day 18, and the mice were sacrificed at day 20.

Panc02 cells [6] = assay: MTT cytotoxicity assay; assay type: cell-based, Murine; conditions: 96 h
Experimental: MTT assay. Panc02 cells were seeded in 96-well plates at a density of 1500 cells/well with 100 μL of complete culture medium (DMEM with 10% FBS and 1% streptomycin/penicillin). After overnight incubation, Panc02 cells were treated with various concentrations of saline, free PF, free BMS, free Bind, free GEM, free GEM+PF, PGEM, PGEM/PF, PGEM/BMS, and PGEM/Bind micelles. After 96 h, the cytotoxicity was determined by MTT assay. The absorbance of each well was measured at 590 nm and the cell viability was determined via the following formula: (ODtreated−ODblank)/(ODcontrol−ODblank)×100%.

[7] = Release of PF from PGEM/PF micelles (dialysis method); assay type: physicochemical; conditions: 37° C., PBS with 0.5% tween 80, 24 h
Experimental: Release of PF from PGEM/PF micelles. The release of PF from PGEM/PF micelles was examined at 37° C. via a dialysis method with free PF as a control. PF-loaded PGEM micelles was transferred into a dialysis bag with MWCO of 3500 Da, which was then incubated in 50 mL PBS with 0.5% (w/v) tween 80 under gentle shaking. At specific time intervals, all the PBS solution outside the dialysis bag was withdrawn and replaced with another 50 mL of fresh solution. The PF concentrations in the solution were determined by HPLC.

Panc02 tumors [8] = assay: Quantification of tumor-infiltrating immune cells by flow cytometry; assay type: in vivo, mice; conditions: i.v. every three days for three times
Experimental: Quantification of tumor-infiltrating lymphocytes by flow cytometry. Syngeneic C57BL/6 mice bearing Panc02 tumors received various treatments (saline, free GEM, free PF, free GEM+PF, PGEM, and PGEM/PF) via i.v. administration every three days for three times. Tumors were collected at 24 h following the last treatment. Single cell suspensions were prepared according to previous literature. See Wan, Z., et al., Science Advances, 7 (50), eabj4226 (2021). Then the cells were stained with various antibodies (Table 1) for flow cytometry analysis. For intracellular cytokine (IFN-γ and GZB) staining, cells were stimulated with PMA (100 ng/mL) and lonomycin (500 ng/mL) for 5 h in the presence of Monensin. Cells were fixed/permeabilized using the BD Cytofix/Cytoperm kit prior to cell staining. Then, the fixed/permeabilized cells were suspended in residual Intracellular Staining Perm Wash Buffer and a predetermined optimum concentration of fluorophore-conjugated antibody of interest was added (e.g. PE anti-IFN-γ) for 30 minutes. The data were analyzed using FlowJo software (available from Becton Dickenson & Company pf Ashland, OR). The percentage of cytokine (IFN-γ or GZB)-producing NK and CD8^+ T cells was gated under total NK and CD8^+ T cells, respectively, which represents the percentage of total NK or CD8^+ T that are IFN-γ or GZB positive.

[9] = Cuffdiff P<0.05, i.v. once every three days for 3 times

Compound | bioavailability [1] | solubility [1] | genes significantly downregulated (Panc02 tumor tissues; [9]) | genes significantly upregulated (Panc02 tumor tissues; [9]) | CCL2 and CCL7 gene expression (RNAseq) (Panc02 tumor tissues; mouse, in vivo) | ISG15 expression (RNAseq) (Panc02 tumor tissues; mouse, in vivo) | signals of cGAS-bound micronuclei (cGAS in Panc02 cells) | IRF3 and STING phosphorylation ([2]; 48 h) | normalized protein levels of pIRF3 and pSTING ([2]; compared with saline and PVD polymer-treated groups) | formation of γH2AX foci (Panc02 cells [3]) | CCL2, CCL7 and ISG15 expression (Panc02 cells [4]) | inhibition of Panc02 tumor growth (therapeutic efficacy) (Panc02 tumors [5]) | anti-tumor activity of PGEM loaded with CCR2 inhibitor (Panc02 tumors [5]) | anti-tumor activity of PGEM loaded with CCR2 inhibitor (Panc02 tumors [5]; listed as PF) | cytotoxicity (Panc02 cells [6]) | PF diffused out of dialysis bag within 24 h [7] | percentage of MDSCs and TAMs in tumors (Panc02 tumors [8])
CC(=O)N[C@@H]1C[C@H](NC(C)(C)C)CC[C@@H]1N1CC[C@H](Nc2ncnc3cc(C(C)(C)C)nn23)C1=O [BMS813160, N-[(1R,2S,5R)-5-[(1,1-dimethylethyl)amino]-2-[(3S)-3-[[7-(1,1-dimethylethyl)pyrazolo[1,5-a]-1,3,5-triazin-4-yl]amino]-2-oxo-1-pyrrolidinyl]cyclohexyl]-acetamide] | low bioavailability | poor solubility |  |  |  |  |  |  |  |  |  |  |  |  |  |  | 
Nc1ccn([C@@H]2O[C@H](CO)[C@@H](O)C2(F)F)c(=O)n1 [GEM, Gemcitabine] |  |  | 489 genes | 416 genes | upregulation | upregulated | significantly increased | significantly induced | significantly higher | induced | similarly induced | modest effect |  |  |  |  | 
O=C(NCC(=O)N1CC[C@H](N[C@H]2CC[C@@](O)(c3ccc(-c4ncccn4)cn3)CC2)C1)c1cccc(C(F)(F)F)c1 [PF-04136309, N-(2-((S)-3-(((1r,4S)-4-hydroxy-4-(5-(pyrimidin-2-yl)pyridin-2-yl)cyclohexyl)amino)pyrrolidin-1-yl)-2-oxoethyl)-3-(trifluoromethyl)benzamide] | low bioavailability | poor solubility |  |  |  |  |  |  |  |  |  | modest effect | best combination effect | best results | slight cytotoxicity | over 95% | decrease
